Source: patent publication US9446061B2, “Composition containing antibiotics and lysophosphatidylcholine for boosting immunity or treatment of bacterial infections” (priority 2011, dated 2016)

Test system: CPA-CLP sepsis mouse model
Test: Effects of LPC concentrations on mortalities/survivabilities in CPA-CLP sepsis mouse model (SEP008); s.c. 4 times 12-hr intervals from 6 hrs after CLP
Type: in vivo, ICR mice
Method: CPA is well known as an immunosuppressive agent. […] Then, the abdomen was closed following the general procedure.
Then, body weight and mortality changes were observed.
In the Sham and CLP control groups, 10 ml/kg of only 5% human serum albumin was subcutaneously dosed at the same intervals.

In the case of Lysophosphatidylcholine [LPC], the minimal effective dose (CPA-CLP model) is reported as “about 1 mg/kg”, the optimal effective dose (CPA-CLP model) is reported as 10 mg/kg and the Mortalities (LPC 1 mpk, 1st CPA treat) is reported as 0/10. The survivabilities (LPC 1 mpk, 1st CPA treat) was 100%, the Mortalities (LPC 1 mpk, 2nd CPA treat) was 0/10 and the survivabilities (LPC 1 mpk, 2nd CPA treat) was 100%. The Mortalities (LPC 1 mpk, At CLP (day 0)) was 0/10, the survivabilities (LPC 1 mpk, At CLP (day 0)) was 100% and the Mortalities (LPC 1 mpk, Day 1) was 4/10. For the same substance, the survivabilities (LPC 1 mpk, Day 1) was 60%, the Mortalities (LPC 1 mpk, Day 2) was 2/6 and the survivabilities (LPC 1 mpk, Day 2) was 40%. For the same substance, the Mortalities (LPC 1 mpk, Day 3) was 2/4, the survivabilities (LPC 1 mpk, Day 3) was 20% and the Mortalities (LPC 1 mpk, Day 4) was 2/2. For the same substance, the survivabilities (LPC 1 mpk, Day 4) was 0%, the Mortalities (LPC 1 mpk, Day 5) was 0/0 and the survivabilities (LPC 1 mpk, Day 5) was 0%. For the same substance, the Mortalities (LPC 1 mpk, Day 6) was 0/0, the survivabilities (LPC 1 mpk, Day 6) was 0% and the Mortalities (LPC 1 mpk, Day 7) was 0/0. The survivabilities (LPC 1 mpk, Day 7) was 0%, the Mortalities (LPC 1 mpk, Total) was 10/10 and the survivabilities (LPC 1 mpk, Total) was 0%. The Mortalities (LPC 2.5 mpk, 1st CPA treat) was 0/10, the survivabilities (LPC 2.5 mpk, 1st CPA treat) was 100% and the Mortalities (LPC 2.5 mpk, 2nd CPA treat) was 0/10. For the same substance, the survivabilities (LPC 2.5 mpk, 2nd CPA treat) was 100%, the Mortalities (LPC 2.5 mpk, At CLP (day 0)) was 0/10 and the survivabilities (LPC 2.5 mpk, At CLP (day 0)) was 100%. For the same substance, the Mortalities (LPC 2.5 mpk, Day 1) was 2/10, the survivabilities (LPC 2.5 mpk, Day 1) was 80% and the Mortalities (LPC 2.5 mpk, Day 2) was 2/8. For the same substance, the survivabilities (LPC 2.5 mpk, Day 2) was 60%, the Mortalities (LPC 2.5 mpk, Day 3) was 3/6 and the survivabilities (LPC 2.5 mpk, Day 3) was 30%. For the same substance, the Mortalities (LPC 2.5 mpk, Day 4) was 2/3, the survivabilities (LPC 2.5 mpk, Day 4) was 10% and the Mortalities (LPC 2.5 mpk, Day 5) was 1/1. The survivabilities (LPC 2.5 mpk, Day 5) was 0%, the Mortalities (LPC 2.5 mpk, Day 6) was 0/0 and the survivabilities (LPC 2.5 mpk, Day 6) was 0%. For the same substance, the Mortalities (LPC 2.5 mpk, Day 7) was 0/0, the survivabilities (LPC 2.5 mpk, Day 7) was 0% and the Mortalities (LPC 2.5 mpk, Total) was 10/10. For the same substance, the survivabilities (LPC 2.5 mpk, Total) was 0%, the Mortalities (LPC 5 mpk, 1st CPA treat) was 0/10 and the survivabilities (LPC 5 mpk, 1st CPA treat) was 100%. The Mortalities (LPC 5 mpk, 2nd CPA treat) was 0/10, the survivabilities (LPC 5 mpk, 2nd CPA treat) was 100% and the Mortalities (LPC 5 mpk, At CLP (day 0)) was 0/10. The survivabilities (LPC 5 mpk, At CLP (day 0)) was 100%, the Mortalities (LPC 5 mpk, Day 1) was 4/10 and the survivabilities (LPC 5 mpk, Day 1) was 60%. For the same substance, the Mortalities (LPC 5 mpk, Day 2) was 1/6, the survivabilities (LPC 5 mpk, Day 2) was 50% and the Mortalities (LPC 5 mpk, Day 3) was 1/5. The survivabilities (LPC 5 mpk, Day 3) was 40%, the Mortalities (LPC 5 mpk, Day 4) was 1/4 and the survivabilities (LPC 5 mpk, Day 4) was 30%. For the same substance, the Mortalities (LPC 5 mpk, Day 5) was 0/3, the survivabilities (LPC 5 mpk, Day 5) was 30% and the Mortalities (LPC 5 mpk, Day 6) was 2/3. The survivabilities (LPC 5 mpk, Day 6) was 10%, the Mortalities (LPC 5 mpk, Day 7) was 1/1 and the survivabilities (LPC 5 mpk, Day 7) was 0%. The Mortalities (LPC 5 mpk, Total) was 10/10, the survivabilities (LPC 5 mpk, Total) was 0% and the Mortalities (LPC 10 mpk, 1st CPA treat) was 0/10. The survivabilities (LPC 10 mpk, 1st CPA treat) was 100%, the Mortalities (LPC 10 mpk, 2nd CPA treat) was 0/10 and the survivabilities (LPC 10 mpk, 2nd CPA treat) was 100%. The Mortalities (LPC 10 mpk, At CLP (day 0)) was 0/10, the survivabilities (LPC 10 mpk, At CLP (day 0)) was 100% and the Mortalities (LPC 10 mpk, Day 1) was 1/10. For the same substance, the survivabilities (LPC 10 mpk, Day 1) was 90%, the Mortalities (LPC 10 mpk, Day 2) was 2/9 and the survivabilities (LPC 10 mpk, Day 2) was 70%. For the same substance, the Mortalities (LPC 10 mpk, Day 3) was 1/7, the survivabilities (LPC 10 mpk, Day 3) was 60% and the Mortalities (LPC 10 mpk, Day 4) was 1/6. The survivabilities (LPC 10 mpk, Day 4) was 50%, the Mortalities (LPC 10 mpk, Day 5) was 1/5 and the survivabilities (LPC 10 mpk, Day 5) was 40%. For the same substance, the Mortalities (LPC 10 mpk, Day 6) was 2/4, the survivabilities (LPC 10 mpk, Day 6) was 20% and the Mortalities (LPC 10 mpk, Day 7) was 2/2. For the same substance, the survivabilities (LPC 10 mpk, Day 7) was 0%, the Mortalities (LPC 10 mpk, Total) was 10/10 and the survivabilities (LPC 10 mpk, Total) was 0%. For the same substance, the Mortalities (LPC 20 mpk, 1st CPA treat) was 0/10, the survivabilities (LPC 20 mpk, 1st CPA treat) was 100% and the Mortalities (LPC 20 mpk, 2nd CPA treat) was 0/10. For the same substance, the survivabilities (LPC 20 mpk, 2nd CPA treat) was 100%, the Mortalities (LPC 20 mpk, At CLP (day 0)) was 0/10 and the survivabilities (LPC 20 mpk, At CLP (day 0)) was 100%. The Mortalities (LPC 20 mpk, Day 1) was 1/10, the survivabilities (LPC 20 mpk, Day 1) was 90% and the Mortalities (LPC 20 mpk, Day 2) was 1/9. For the same substance, the survivabilities (LPC 20 mpk, Day 2) was 80%, the Mortalities (LPC 20 mpk, Day 3) was 2/8 and the survivabilities (LPC 20 mpk, Day 3) was 60%. The Mortalities (LPC 20 mpk, Day 4) was 2/6, the survivabilities (LPC 20 mpk, Day 4) was 40% and the Mortalities (LPC 20 mpk, Day 5) was 2/4. The survivabilities (LPC 20 mpk, Day 5) was 20%, the Mortalities (LPC 20 mpk, Day 6) was 0/2 and the survivabilities (LPC 20 mpk, Day 6) was 20%. The Mortalities (LPC 20 mpk, Day 7) was 2/2, the survivabilities (LPC 20 mpk, Day 7) was 0% and the Mortalities (LPC 20 mpk, Total) was 10/10. The survivabilities (LPC 20 mpk, Total) was 0% and the survival time (all the five doses of LPC in CPA-CLP mice) was “significantly increased”.
